According to patent US20240285784A1, “PEPTIDIC CONJUGATES OF SN38 USEFUL IN THE TREATMENT OF CANCER” (FUNDACIÓ INSTITUT DE RECERCA BIOMÈDICA (IRB BARCELONA), priority 2020, published 2024):
*1 amine or outer side, *2 acyl side, *3 side chain or, on linkers, in order; H or OH if unused. Where a SMILES comes first, the peptide text is derived from it. Bridges are numbered along the chain shown (N, C = ends). [ ]: non-standard residue; d: D form. The star is where a group is joined. ξ: configuration not given here. X5 = CCc1c2c(nc3ccc(OC(=O)CCCCn4cc(CCCC(=O)NCCCOCCOCCOCCSCN*)nn4)cc13)-c1cc3c(c(=O)n1C2)COC(=O)[C@]3(O)CC; X4 = CC(O)CC(N[*:1])C(=O)[*:2]; Suc = O=C(CCC(=O)[*:2])[*:1]; ξE = NC(CCC(=O)O)C(=O)O; ξD = NC(CC(=O)O)C(=O)O; ξK = NCCCCC(N)C(=O)O; ξT = CC(O)C(N)C(=O)O; ξDap = NCC(N)C(=O)O; ξP = O=C(O)C1CCCN1; ξA = CC(N)C(=O)O

Experiments:
[1] = tested on: patient-derived xenograft of neuroblastoma HSJD-NB-013; conditions: 6 doses of 100 mg/kg intravenous at days 1, 2, 3, 4, 5 and 8; one mouse, two tumors; until day 44
[2] = Evaluation of solubility in water; type: physicochemical; conditions: at 1 mg/mL
Description: 25 mg of SN38-linker A-MiniAp4 were dissolved in H2O, showing a completely transparent solution. This means that SN38-linker A-MiniAp4 has a solubility in water higher than 5 mg/mL, more than 400-fold the solubility in water described for SN38 (Mol. Pharmaceutics, 2016, 13, 379-390).

With CCc1c2c(nc3ccc(OC(=O)CCCCn4cc(CCCC(=O)NCCCOCCOCCOCCSCNC(=O)CCC(=O)NC5CNC(=O)CC(C(N)=O)NC(=O)C(CC(C)O)NC(=O)C(C)NC(=O)C(C(C)O)NC(=O)C(CCC(=O)O)NC(=O)C6CCCN6C(=O)C(C)NC(=O)C(CCCCN)NC5=O)nn4)cc13)-c1cc3c(c(=O)n1C2)COC(=O)[C@]3(O)CC (some centres unmarked) [G2B-003 (Ic)] ({X5-Suc}-[ξDap][ξK][ξA][ξP][ξE][ξT][ξA][X4][ξD]-NH2; lactam 1-9) the “antitumor response (tumor volume)” value [1] was “measurable and long lasting antitumor response” and the solubility in water [2] was “good solubility”.
